Source: patent US20250051285A1, “C[…] FORM OF EP4 ANTAGONIST” (Eisai R&D Management Co., Ltd., priority 2021, published 2025)

What was measured:
Format in all cases: physicochemical
[1] = Dissociation constant (pKa) by capillary electrophoresis; details: capillary electrophoresis (CE), buffer solution I = 0.05, 25° C.
[2] = Solubility in organic solvents and water
[3] = Solubility in aqueous solutions
[4] = Hygroscopicity by dynamic vapor sorption (DVS)
Description: Hygroscopicity of crystalline free acid form of Compound 1 was measured using the dynamic vapor sorption (DVS) method.

With `C[C@H](NC(=O)c1c(C(F)F)nn(C)c1Oc1cccc(C(F)(F)F)c1)c1ccc(C(=O)O)cc1` [Compound 1, (S)-4-(1-(3-(difluoromethyl)-1-methyl-5-(3-(trifluoromethyl)phenoxy)-1H-pyrazole-4-carboxamido)ethyl)benzoic acid] as the compound, how does the pKa [1] read?
Its pKa is 4.1.

What about the “Solubility in 2-propanol” value ([2]; 2-propanol) of the same compound?
The value was “ethanol and ethyl acetate, slightly soluble in 2-”.

And the Solubility in acetonitrile ([2]; acetonitrile)?
Its Solubility in acetonitrile is “soluble”.

And the Solubility in ethanol ([2]; ethanol)?
The Solubility in ethanol was “sparingly soluble”.

And the “Solubility in ethyl acetate” value ([2]; ethyl acetate)?
The value was “sparingly soluble”.

What about the Solubility in heptane ([2]; heptane) of the same compound?
Its Solubility in heptane is “practically insoluble in water and heptane”.

What about the Solubility in water ([2]; water) of the same compound?
The Solubility in water was “practically insoluble in water and heptane”.

What about the “Solubility in 0.1N HCl” value ([3]; 0.1N HCl) of the same compound?
The value was 0.3, pH 9) and practically insoluble in 0.1N HCl and.

What about the “Solubility in Britton-Robinson buffer pH 9” value ([3]; Britton-Robinson buffer, I = 0.3, pH 9) of the same compound?
Its value is “Very slightly soluble in Britton-Robinson buffer (I =”.

And the Hygroscopicity ([4]; DVS adsorption and desorption isotherm)?
The Hygroscopicity was “Non-hygroscopic”.

And the “Weight change in DVS” value ([4]; relative humidity 5% to 95% RH at 25° C.)?
Its value is “No significant weight change”.
